Calls of active or inactive are those of the source. The rule behind the calls is not given here.
Legend:
Assay type in all cases: functional, organism-based
Mus musculus [1] = assay: Central nervous system depression activity in mouse assessed as induction of passivity at 50 mg/kg, ip after 60 mins; design: dose 50 mg/kg
Mus musculus [2] = assay: Central nervous system depression activity in mouse assessed as decrease in touch response at 25 mg/kg, ip; design: dose 25 mg/kg
Mus musculus [3] = assay: Central nervous system depression activity in mouse assessed as abduction of limbs at 50 mg/kg, ip after 60 mins; design: dose 50 mg/kg
Mus musculus [4] = assay: Central nervous system depression activity in mouse assessed as fast respiration at 50 mg/kg, ip after 40 mins; design: dose 50 mg/kg
Mus musculus [5] = assay: Central nervous system depression activity in mouse assessed as staggering gait at 25 mg/kg, ip after 30 mins; design: dose 25 mg/kg
Mus musculus [6] = assay: Central nervous system depression activity in mouse assessed as decrease in locomotor activity at 50 mg/kg, ip; design: dose 50 mg/kg
Mus musculus [7] = assay: Central nervous system depression activity in mouse assessed as tremors on movement at 50 mg/kg, ip after 60 mins; design: dose 50 mg/kg
Mus musculus [8] = assay: Central nervous system depression activity in mouse assessed as decrease in body and limb tone at 50 mg/kg, ip after 60 mins; design: dose 50 mg/kg
Mus musculus [9] = assay: Central nervous system depression activity in mouse assessed as staggering gait at 25 mg/kg, ip; design: dose 25 mg/kg
Mus musculus [10] = assay: Central nervous system depression activity in mouse assessed as decrease in locomotor activity at 25 mg/kg, ip; design: dose 25 mg/kg
Mus musculus [11] = assay: Central nervous system depression activity in mouse assessed as passivity at 25 mg/kg, ip; design: dose 25 mg/kg
Mus musculus [12] = assay: Central nervous system depression activity in mouse assessed as ptosis at 25 mg/kg, ip; design: dose 25 mg/kg
Mus musculus [13] = assay: Central nervous system depression activity in mouse assessed as decrease in touch response at 50 mg/kg, ip; design: dose 50 mg/kg
Mus musculus [14] = assay: Central nervous system depression activity in mouse assessed as staggering gait at 50 mg/kg, ip after 40 mins; design: dose 50 mg/kg

Row | SMILES | Activity (Mus musculus [1]) | Activity (Mus musculus [2]) | Activity (Mus musculus [3]) | Activity (Mus musculus [4]) | Activity (Mus musculus [5]) | Activity (Mus musculus [6]) | Activity (Mus musculus [7]) | Activity (Mus musculus [8]) | Activity (Mus musculus [9]) | Activity (Mus musculus [10]) | Activity (Mus musculus [11]) | Activity (Mus musculus [12]) | Activity (Mus musculus [13]) | Activity (Mus musculus [14])
1 | CO[C@H]1[C@@H](O)[C@@H](C)O[C@@H](O[C@H]2CC[C@@]3(C)[C@H](CC[C@@H]4[C@@H]3CC[C@]3(C)[C@@H](C5=CC(=O)OC5)[C@@H](OC(C)=O)C[C@]43O)C2)[C@@H]1O | Active | inactive | Active | Active | Active | Active | Active | Active | – | – | – | – | – | –
2 | CO[C@H]1[C@@H](O)[C@@H](C)O[C@@H](O[C@H]2CC[C@@]3(C)[C@H](CC[C@@H]4[C@@H]3CC[C@]3(C)[C@@H](C5=CC(=O)OC5)CC[C@]43O)C2)[C@@H]1O | – | Active | – | – | – | Active | – | – | Active | Active | Active | Active | – | –
3 | CO[C@H]1[C@H](O[C@H]2CC[C@@]3(C)[C@H](CC[C@@H]4[C@@H]3CC[C@]3(C)C(C5=CC(=O)OC5)=CC[C@]43O)C2)O[C@H](C)[C@H](O)[C@@H]1OC | – | inactive | – | – | – | Active | – | – | – | Active | – | – | Active | Active

— ChEMBL document CHEMBL1146398, “Cardenolides from the methanolic extract of Nerium oleander leaves possessing central nervous system depressant activity in mice” (J Nat Prod, 1997)
